From article PMC3545992, “Trisubstituted Pyrazolopyrimidines as Novel Angiogenesis Inhibitors” (PLoS ONE, 2013)
pIC50: −log10 of the molar value. Read-outs that look alike come from different tables or passages of the source.

Columns and labels:
HMEC-1 cells = experiment: Crystal violet proliferation assay; type: cell-based, human; conditions: HMEC-1, 72 h, read-out: IC50 endothelial cell proliferation
Protocol: HMEC-1 cells were seeded to a density of 1,500 cells/well. After 24 h of incubation, a zero point control was stained with crystal violet. The remaining cells were left untreated as positive control or treated with 0.3-1-3-10–30 µM of the indicated compounds. After 72 h additional incubation, relative proliferation was determined by crystal violet staining and quantified as absorption at 550 nm.
HMEC-1 were seeded into 96-well-plates (1,500 cells/well). After 24 h, the cells were stimulated with the indicated compounds. At the same time point, cells in a reference plate were stained with crystal violet, serving as initial cell number. After 72 hours of stimulation, cells were fixed and stained with crystal-violet solution for 10 minutes, washed with water, and air dried. Crystal violet was eluted with dissolving buffer and absorbance was measured at 550 nm (Tecan Sunrise Absorbance reader, TECAN, Crailsheim, Germany). In a parallel series of experiments, cells seeded at the same cell density as in the proliferation assays were treated with 30 µM of the respective compound for 72 h. Afterwards, 10 µg/ml propidium iodide was added for 30 min to counterstain cells for membrane integrity. Phase contrast and fluorescence images were obtained with an inverted Nikon microscope (Ti, Nikon, Düsseldorf, Germany) equipped with a 10x objective.

HUVECs [1] = experiment: Tube formation assay on Matrigel; type: cell-based, human; conditions: 10 µM, 16 h
Protocol: Figure 6 LGR 1404, 1406 and 1407 inhibit tube formation at 10 µM. HUVECs were seeded onto a matrix of growth-factor reduced Matrigel^TM in the presence or absence of the respective concentration of the compounds. After 16 h of incubation, images were taken and tube characteristics were quantified. A: Number of tubes (n = 3, mean ± SEM, * p<0.05, One Way ANOVA, Dunnett). B: Number of branching points (n = 3, mean ± SEM, * p<0.05, One Way ANOVA, Dunnett). C: Tube total length (n = 3, mean ± SEM, * p<0.05, One Way ANOVA, Dunnett). D: Representative images of the tube formation assay and the software based tube recognition (structures identified as tubes are blue) in a control (Co, left panel) and after treatment with LGR 1406 (10 µM, right panel).
Pre-cooled BD Matrigel^TM Matrix Growth Factor Reduced (GFR) (BD Biosciences, Heidelberg, Germany) was filled into the lower compartment of μ-slide Angiogenesis wells (ibidi GmbH, Martinsried, Germany) on ice. For polymerization of the Matrigel^TM Matrix, the slides were incubated at 37°C for 30 min. 12,000 HUVECs/well were seeded onto the Matrigel^TM and stimulated for 16 h. The extent of tube formation was determined by light microscopy using the TILLvisON system. Quantitative image analysis of tube length, number of branching points and tube number was performed with a software tool from Wimasis GmbH, Munich.

HUVECs [2] = experiment: Cell viability assay (CellTiter-Blue) in confluent HUVECs; type: cell-based, human; conditions: 30 µM, 16 h
Protocol: Figure 2 Cdk5 is expressed in HUVECs and HMEC-1 cells, and the compounds are not cytotoxic to endothelial cells at concentrations used in functional assays. A: Cdk5 protein expression in endothelial cells in comparison to human cortex. Cdk5 protein amount was analyzed by Western blot in samples of human cortex (HC), confluent HUVECs (HU) and HMEC-1 (HM). β-actin served as a loading control and for normalization of protein amount. Relative quantification (left panel) and one representative image (right panel) of three individual blots are shown. Note the much lower protein loading in the HC sample in the right panel. (n = 3, mean ± SEM, p>0.05, One Way ANOVA, Dunnett). B: Confluent HUVECs were treated for 16 h with 10 or 30 µM of the indicated compounds or left untreated as control. After addition of CellTiter-BlueTM Reagent, cells were incubated for 4 h and fluorescence was measured at 560 nm (n = 3, mean ± SEM, * p<0.05, One Way ANOVA, Dunnett).
HUVECs were seeded in 96-well plates. After reaching confluency, the cells were treated for 16 h with the indicated compounds or left untreated as control. After addition of CellTiter-Blue^TM Reagent (Promega Corporation, Madison, WI, USA), cells were incubated for additional 4 h and fluorescence was measured at 560 nm in a plate-reading photometer (SpectraFluor Plus; Tecan, Crailsheim, Germany).

[3] = system: chorioallantoic membrane (CAM); experiment: Chorioallantoic membrane (CAM) assay, VEGF-induced vessel formation; type: in vivo, white leghorn; conditions: 250 nmol compound with 2.5 ng VEGF per cellulose disc, 24 h
Protocol: Fertilized white leghorn eggs were incubated for 72 h at 37°C in humidified atmosphere. After transferring the growing embryo into Petri dishes, a second incubation period of 72 h followed. At day 6, cellulose discs with 2.5 ng VEGF/250 nmol compound were placed on the membrane. 2.5 ng VEGF/DMSO was used as control. Pictures were taken after 24 h of stimulation. Representative images out of at least three experiments are shown.
Fertilized white leghorn eggs were incubated for 72 h at 37°C in humidified atmosphere. After transferring the growing embryo into a Petri dish, a second incubation period of 72 h followed. At day 6, two cellulose discs, one with 2.5 ng VEGF (VEGF 165, human recombinant from PeproTech GmbH, Hamburg, Germany)/250 nmol compound and the other with 2.5 ng VEGF/DMSO as control were placed on one CAM. After 24 h of stimulation, the vascular structure in the stimulated areas of the CAM was visualized using a stereomicroscope and a CCD camera (Olympus, Munich, Germany) and pictures were taken. The cellulose disks were produced as follows: after preparing a cellulose solution (2.5% hydroxyethyl cellulose, 2% polyvinylpyrrolidone (PVP 17), 2% polyethylene glycol (PEG 400) in water), the mixture was autoclaved, resulting in a homogenized, clear solution. For each disk, 200 μl of the warm solution were filled into the preformed circles of the lid of a 96 well plate and allowed to polymerize under a laminar air flow for 48 h. Finally, the cellulose disks were removed using tweezers and stored in a sterile Petri dish until use.

| Compound | pIC50 (HMEC-1 cells; Homo sapiens) | reduction of total tube length (HUVECs [1]) | tube and branching point numbers and total tube length (in words) (HUVECs [1]) | cell viability in comparison to control (HUVECs [2]) | VEGF-induced vessel formation [3] | pIC50 (HMEC-1 cells) | reduction of number of branching points (HUVECs [1]) | reduction of tube number (HUVECs [1]) | reduction of total tube length (HUVECs [1]; listed as LGR1407) |
| --- | --- | --- | --- | --- | --- | --- | --- | --- | --- |
| CC[C@H](CO)Nc1nc(NCc2ccccc2)c2n[nH]c(C(C)C)c2n1 [LGR 1404, 7-Benzylamino-5(R)-[(1-hydroxymethyl)propylamino]-3-isopropyl-1(2)H-pyrazolo[4,3-d]pyrimidine] | 5.11 | 25% | significant reduction | weak but significant decrease of viability | completely inhibit |  |  |  |  |
| CC(C)c1n[nH]c2c(NCc3ccccc3)nc(NC3CCCCC3N)nc12 (stereo not drawn) [LGR 1406, 5-[(2-E/Z-aminocyclohexyl)amino]-7-benzylamino-3-isopropyl-1(2)H-pyrazolo[4,3-d]pyrimidine] | ~6.00 | 56% | significant reduction | weak but significant decrease of viability | completely inhibit | 6.03 | 56% | 42% |  |
| CC(C)c1n[nH]c2c(NCc3ccccc3)nc(NC3CCC(N)CC3)nc12 (stereo not drawn) [LGR 1407, 5-[(4-E-aminocyclohexyl)amino]-7-benzylamino-3-isopropyl-1(2)H-pyrazolo[4,3-d]pyrimidine] | 5.44 | about 30% | significant reduction | weak but significant decrease of viability | completely inhibit |  | 35% | about 30% | 30% |
